Assay results taken from patent US20220298253A1, “TREATMENT OF RMS BY SWITCHING THERAPY” (Novartis AG, priority 2019, published 2022).
Entries after “also recorded” stand apart in the source; their conditions may differ. Read-outs that look alike come from different tables or passages of the source.

Legend:
MS patients [1] = test: ASCLEPIOS I: loss of thalamus volume; assay type: in vivo, human; details: for thalamus volume, mean percentage change between Month 24 and baseline: ASCLEPIOS I
Procedure: (§1) In ASCLEPIOS I patients were randomised (1:1) to receive either ofatumumab 20 mg sc injections every 4 weeks (after an initial loading regimen of 20 mg sc doses on Days 1, 7 and 14) or teriflunomide 14 mg orally once daily, for up to 30 months. Patients aged 18-55 years with an Expanded Disability Status Scale (EDSS) score (according to Kurtzke, Neurology. 1983, November; 33(11): 1444-52) of 0-5.5 at screening who experienced ≥1 relapse in the past year or ≥2 relapses in the past 2 years or a positive gadolinium-enhancing (Gd+) MM scan during the year before randomisation were included.

MS patients [2] = test: ASCLEPIOS I: MSIS-29 impact score; assay type: in vivo, human
Procedure: The MSIS-29 version 2 is a 29-item, self-administered questionnaire that includes 2 domains: physical and psychological. Responses were captured on a 4-point ordinal scale ranging from 1 (not at all) to 4 (extremely), with higher scores reflecting greater impact on day-to-day life. The MSIS-29 takes about 5 minutes to complete and the questions are designed to determine the patient's views about the impact of MS on their day-to-day life during the past 2 weeks. Reference is made to Hobart J and Cano S (2009), “Improving the evaluation of therapeutic interventions in multiple sclerosis: the role of new psychometric methods”, Health Technol Assess; 13(12):iii, ix-x, […] to Hobart J, Lamping D, Fitzpatrick R, et al (2001), “The Multiple Sclerosis Impact Scale (MSIS-29): a new patient-based outcome measure”, Brain; 124(Pt 5):962-73.
as §1

[3] = tested on: patients with multiple sclerosis; details: cited from earlier work; for clinical and MRI course after anti-CD20 infusion: case reports, rebound after fingolimod cessation (Hatcher et al. 2016; Schmidt and Schulten 2019)
[4] = tested on: patients with relapsing MS; test: Number of relapses in patients switched from an earlier DMT to ofatumumab (Example 2); assay type: in vivo, human; details: for Mean NURLP12: number of relapses in past 12 months (screening) / Mean NURLP24a: number of relapses in past 24 months (screening): before switch
Procedure: (§2) The effect of ofatumumab administered to patients who have been treated with DMTs other than ofatumumab has been investigated as described below.
(§3) Ofatumumab was provided in pre-filled syringes for subcutaneous administration containing 20 mg ofatumumab (50 mg/ml, 0.4 ml content). The matching placebo to ofatumumab pre-filled syringe had the same appearance as the investigational drug.
(§4) Ofatumumab arm: ofatumumab 20 mg s.c. injections on Day 1, 7, 14, Week 4 (Study Month 1) and every 4 weeks thereafter+teriflunomide-matching placebo capsule orally once daily.
(§5) Eligible patients can be randomized in a 1:1 ratio to either the active ofatumumab 20 mg group or to the active teriflunomide 14 mg group. The randomization was stratified by geographical region and by MS subtype (RRMS, SPMS).
(§6) Diagnosis of MS according to the 2010 Revised McDonald criteria (Polman et al. 2011).
(§7) Relapsing MS: relapsing-remitting course (RRMS), or secondary progressive (SPMS) course with disease activity, as defined by Lublin et al., 2014.
(§8) Disability status at Screening with an EDSS score of 0 to 5.5 (inclusive).
(§9) Patients previously treated with DMT selected from glatiramer acetate, dimethyl fumarate (DMF), daclizumab, fingolimod, natalizumab and laquinimod.
(§10) Documentation of at least: 1 relapse during the previous 1 year OR 2 relapses during the previous 2 years prior to Screening OR a positive Gd-enhancing MM scan during the year prior to randomization. Note: Screening MRI scan may be used if no positive Gd enhancing scan exist from prior year.
(§11) Neurologically stable within 1 month prior to randomization

MS patients [5] = details: cited from earlier work; for reduction in annualized relapse rate (ARR) compared to Aubagio (teriflunomide): p<0.001
[6] = tested on: patients with relapsing MS; test: Gd-enhancing T1 lesion numbers in patients switched from an earlier DMT to ofatumumab (Example 2); assay type: in vivo, human
Procedure: as §2, §3, §4, §5, §6, §7, §8, §9, §10, §11
The following results were obtained for the Gd lesion numbers.

primary human B cells [7] = test: CDC after delayed addition of complement; assay type: cell-based; details: cells washed, complement source added after 6 hours; FIG. 3
Procedure: In a second experiment, B cells were incubated with antibody as described before, albeit in the absence of a source of complement. Cells were washed as described previously. After 6 hours, the source of complement was added.

[8] = Half-life of ofatumumab at steady state; assay type: in vivo; details: following subcutaneous administration of repeated 20 mg doses
primary human B cells [9] = test: Ofatumumab-induced CDC of freshly isolated primary human B cells; assay type: cell-based; details: antibody and 30% human serum added simultaneously, 1 hour, flow cytometry; compared to ocrelizumab and rituximab; FIG. 2
[10] = earlier DMT fingolimod, ofatumumab 20 mg s.c.
[11] = earlier DMT fingolimod, ofatumumab 20 mg s.c., listed as OMB

C/C(O)=C(\C#N)C(=O)Nc1ccc(C(F)(F)F)cc1 [teriflunomide, reference compound]
thalamus volume, mean percentage change between Month 24 and baseline (MS patients [1]): −1.4% | mean change in MSIS-29 physical impact score from baseline (MS patients [2]; Month 6): −0.44 | mean change in MSIS-29 physical impact score from baseline (MS patients [2]; Month 12): 0.17 | mean change in MSIS-29 physical impact score from baseline (MS patients [2]; Month 18): 0.67 | mean change in MSIS-29 physical impact score from baseline (MS patients [2]; Month 24): 0.59 | mean change in MSIS-29 physical impact score from baseline (MS patients [2]; Month 30): 0.55

ocrelizumab: anti-CD20 mAb administered by intravenous infusion
clinical and MRI course after anti-CD20 infusion [3]: clinical worsening and new Gd-enhancing MRI lesions | EDSS course after administration ([3]; two patients, more than 3 months after fingolimod withdrawal, FIG. 1): significant Expanded Disability Status Scale (EDSS) progression

ofatumumab: recombinant human monoclonal immunoglobulin G1 (IgG1) antibody that binds to human CD20
Mean NCFRLP12: number of relapses up to month 12 post-first dose ([4]; earlier DMT DMF): 0.21 | Mean NCFRLP24: number of relapses up to month 24 post-first dose ([4]; earlier DMT DMF): 0.39 | Mean NURLP12: number of relapses in past 12 months (screening) ([4]; earlier DMT DMF): 1.11 | Mean NURLP24a: number of relapses in past 24 months (screening) ([4]; earlier DMT DMF): 2 | Mean NCFRLP12: number of relapses up to month 12 post-first dose ([4]; earlier DMT daclizumab): 0 | Mean NCFRLP24: number of relapses up to month 24 post-first dose ([4]; earlier DMT daclizumab): 0 | Mean NURLP12: number of relapses in past 12 months (screening) ([4]; earlier DMT daclizumab): 1 | Mean NURLP24a: number of relapses in past 24 months (screening) ([4]; earlier DMT daclizumab): 1.18 | Mean NURLP12: number of relapses in past 12 months (screening) ([4]; earlier DMT fingolimod): approx. 1.26 | Mean NURLP24a: number of relapses in past 24 months (screening) ([4]; earlier DMT fingolimod): 2.28 | Mean NURLP12: number of relapses in past 12 months (screening) ([4]; earlier DMT fingolimod, listed as OMB): 1.26 | Mean NCFRLP12: number of relapses up to month 12 post-first dose [4, 10]: approx. 0.23 | Mean NCFRLP24: number of relapses up to month 24 post-first dose [4, 10]: about 0.30 | Mean NCFRLP12: number of relapses up to month 12 post-first dose [4, 11]: 0.23 | Mean NCFRLP24: number of relapses up to month 24 post-first dose [4, 11]: 0.31 | Mean NCFRLP12: number of relapses up to month 12 post-first dose ([4]; earlier DMT glatiramer acetate): 0.10 | Mean NCFRLP24: number of relapses up to month 24 post-first dose ([4]; earlier DMT glatiramer acetate): 0.17 | Mean NURLP12: number of relapses in past 12 months (screening) ([4]; earlier DMT glatiramer acetate): 1.21 | Mean NURLP24a: number of relapses in past 24 months (screening) ([4]; earlier DMT glatiramer acetate): 2.13 | Mean NCFRLP12: number of relapses up to month 12 post-first dose ([4]; earlier DMT natalizumab): 0.13 | Mean NCFRLP24: number of relapses up to month 24 post-first dose ([4]; earlier DMT natalizumab): 0.2 | Mean NURLP12: number of relapses in past 12 months (screening) ([4]; earlier DMT natalizumab): 1.2 | Mean NURLP24a: number of relapses in past 24 months (screening) ([4]; earlier DMT natalizumab): 2.37 | suppression of gadolinium (Gd) T1 lesions compared to Aubagio (MS patients [5]; ASCLEPIOS I/II): highly significant suppression | annualized relapse rate (ARR) (MS patients [5]; ASCLEPIOS I): 0.11 | reduction in annualized relapse rate (ARR) compared to Aubagio (teriflunomide) (MS patients [5]; ASCLEPIOS I): 50.5% | annualized relapse rate (ARR) (MS patients [5]; ASCLEPIOS II): 0.10 | reduction in annualized relapse rate (ARR) compared to Aubagio (teriflunomide) (MS patients [5]; ASCLEPIOS II): 58.5% | relative risk reduction in 3-month confirmed disability progression (CDP) versus Aubagio (MS patients [5]; pre-specified pooled analyses, p=0.002): 34.4% | relative risk reduction in 6-month confirmed disability progression (CDP) versus Aubagio (MS patients [5]; pre-specified pooled analyses, p=0.012): 32.5% | thalamus volume, mean percentage change between Month 24 and baseline (MS patients [1]): −1.00% | thalamus volume change, mean difference ofatumumab vs teriflunomide (MS patients [1]; Month 24, p=0.002): 0.40 | Mean Gd lesion number ([6]; earlier DMT DMF, BASELINE): 2.02 | Mean Gd lesion number ([6]; earlier DMT DMF, Week 48): 0 | Mean Gd lesion number ([6]; earlier DMT DMF, Week 96): 0 | Mean Gd lesion number ([6]; earlier DMT daclizumab, BASELINE): 0.18 | Mean Gd lesion number ([6]; earlier DMT daclizumab, Week 48): 0 | Mean Gd lesion number ([6]; earlier DMT daclizumab, Week 96): 0 | Mean Gd lesion number ([6]; earlier DMT fingolimod, BASELINE): 2.95 | Mean Gd lesion number ([6]; earlier DMT fingolimod, Week 48): 0.03 | Mean Gd lesion number ([6]; earlier DMT fingolimod, Week 96): 0 | Mean Gd lesion number ([6]; earlier DMT glatiramer acetate, BASELINE): 1.52 | Mean Gd lesion number ([6]; earlier DMT glatiramer acetate, Week 48): 0.02 | Mean Gd lesion number ([6]; earlier DMT glatiramer acetate, Week 96): 0.02 | Mean Gd lesion number ([6]; earlier DMT natalizumab, BASELINE): 2.5 | Mean Gd lesion number ([6]; earlier DMT natalizumab, Week 48): 0.04 | Mean Gd lesion number ([6]; earlier DMT natalizumab, Week 96): 0 | induction of CDC after delayed addition of complement (primary human B cells [7]): potently induced CDC | mean change in MSIS-29 physical impact score from baseline (MS patients [2]; Month 6): −2.75 | MSIS-29 physical impact score, mean difference ofatumumab vs teriflunomide (MS patients [2]; Month 6, p=0.017): −2.30 | mean change in MSIS-29 physical impact score from baseline (MS patients [2]; Month 12): −2.43 | MSIS-29 physical impact score, mean difference ofatumumab vs teriflunomide (MS patients [2]; Month 12, p=0.009): −2.59 | mean change in MSIS-29 physical impact score from baseline (MS patients [2]; Month 18): −2.37 | MSIS-29 physical impact score, mean difference ofatumumab vs teriflunomide (MS patients [2]; Month 18, p=0.005): −3.05 | mean change in MSIS-29 physical impact score from baseline (MS patients [2]; Month 24): −2.6 | MSIS-29 physical impact score, mean difference ofatumumab vs teriflunomide (MS patients [2]; Month 24, p=0.008): −3.19 | mean change in MSIS-29 physical impact score from baseline (MS patients [2]; Month 30): −3.21 | MSIS-29 physical impact score, mean difference ofatumumab vs teriflunomide (MS patients [2]; Month 30, p=0.026): −3.76 | MSIS-29 psychological impact score vs teriflunomide treatment group (MS patients [2]; difference statistically significant only at Month 12): stronger reduction | half-life at steady state [8]: approximately 16 days | induction of CDC (B cell lysis, SYTOX Blue+ cells) (primary human B cells [9]): strong concentration-dependent induction

rituximab: anti-CD20 mAb administered by intravenous infusion
clinical and MRI course after anti-CD20 infusion [3]: clinical worsening; also recorded: persistent Gd-enhancing lesions
